Patent US9006252B2, “Fused multicyclic compounds as protein kinase inhibitors” (National Health Research Institutes, priority 2008, dated 2015)
Values joined by “and” are separate entries in the source; they are usually repeats but may differ in a detail not shown here. Identical values can stand only once.

Legend:
[1] = test system: HCT-116 cells; experiment: HCT-116 cell viability, MTS assay; type: cell-based; conditions: Homo sapiens, HCT-116, 96 h, 96-h incubation, MTS; read-out: IC50 values, HCT-116 cell viability
Protocol: HCT-116 cell viability was examined by the MTS assay (Promega, Madison, Wis., USA). 2000 HCT-116 cells in 100 μL McCoy's 5a medium were seeded in each well of a 96-well plate. After 96-h incubation with a test compound, the cells were incubated with 20 μL of a MTS/PMS mixture (MTS/PMS ratio: 20:1) for 2 h at 37° C. in a humidified incubator with 5% CO2 to allow viable cells to convert the tetrazolium salt (MTS) into formazan. The amount/concentration of formazan, which indicates the number of live cells, was determined by measuring the absorbance at 490 nm using a PerkinElmer Victor2 plate reader (PerkinElmer, Shelton, Conn., USA).

[2] = test system: HCT-116 colon tumor xenograft; experiment: In vivo anticancer efficacy in colon tumor xenograft mice (injected with HCT-116); design: species or system nude mice; conditions: for tumor growth suppression (in words): versus VX-680 at 50 mg/kg
Protocol: In vivo anticancer efficacy of the compounds of this invention was assessed using colon tumor xenograft mice (injected with HCT-116), as described in Cancer Research 2004, 64, 4621-4628.
(§1) HCT-116 cells were injected via s.c. in nude mice to form colon tumor xenograft mice. Mice bearing tumors with a size of ˜100 mm^3 were randomly assigned to three groups: a vehicle control group (10 mice), a positive control group (10 mice), and a treatment group (21 mice). Of the treated mice, ten received Compound 3 at a daily dosage of 25 mg/kg via IV injection through the tail veins for 5 days/week for 2 consecutive weeks (days 1-5 and 8-12) and eleven received the same compound at a daily dosage of 50 mg/kg via IV injection through the tail veins for 5 consecutive days (days 1-5). The positive control mice received VX-680 (a known anti-cancer drug) at a daily dosage of 50 mg/kg, also via IV injection through the tail veins for 5 days/week for 2 consecutive weeks (days 1-5 and 8-12).
as §1, with “Compound 4” for “Compound 3”, “of 5 mg/kg and eleven received the same compound at a daily dosage of 15” for “of 25”, “and 8-12).” for “and 8-12) and eleven received the same compound at a daily dosage of 50 mg/kg via IV injection through the tail veins for 5 consecutive days (days 1-5).”, “VX-680” for “VX-680 (a known anti-cancer drug)”

[3] = target: T1, Aurora A (Homo sapiens, UniProt O14965); experiment: Aurora Kinase A luminescent kinase assay (Kinase-Glo); type: biochemical; conditions: IC50 values (concentration of a test compound at which activity of 50% of Aurora A is inhibited), GST-tAurora A (123-401aa) fusion protein
T1 construct: GST-tAurora A (123-401aa) fusion protein obtained above; made in house; host or cells: Sf9 insect cells (baculovirus, pBacPAK8)
T1 sequence (O14965 123-401): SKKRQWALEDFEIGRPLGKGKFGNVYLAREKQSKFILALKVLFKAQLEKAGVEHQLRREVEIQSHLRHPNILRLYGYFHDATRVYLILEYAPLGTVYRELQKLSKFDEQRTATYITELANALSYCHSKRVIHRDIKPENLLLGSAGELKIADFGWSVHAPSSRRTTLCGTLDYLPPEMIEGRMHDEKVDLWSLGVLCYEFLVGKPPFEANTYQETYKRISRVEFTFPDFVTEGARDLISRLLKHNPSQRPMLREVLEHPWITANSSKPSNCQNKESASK
Protocol: The Aurora A catalytic domain with an N-terminal GST tag was constructed in pBacPAK8 plasmid and expressed in sf9 cells. […] To concentrate GST-tAurora A, buffer was replaced with Tris buffer (100 mM Tris (pH 7.5), 300 mM NaCl, 1 mM EDTA, 4 mM DTT) using Amicon ultra-15 (MWCO:30K, Millipore) to 2.4 mg/ml. After the addition of equal volume of glycerol and 0.04% Triton X-100, the proteins were stored aliquoted at −80° C.
Briefly, a test compound, enzyme, substrate-tetra(LRRWSLG), DTT and ATP were dissolved in Aur buffer (50 mM Tris-HCl pH 7.4, 10 mM NaCl, 10 mM MgCl2, and 100 μg/ml BSA) individually before the assay. […] 5 μM ATP (5 μl), 1 mM DTT (5 μl) and 0.1 mM tetra(LRRWSLG) peptide substrate (5 μl) were added into the reactions of test compounds and GST-tAurora A. The reactions were incubated at 37° C. for 90 min. 50 μl of Kinase-Glo Plus Reagent (V3771, Promega) was added into the reactions, followed by the incubation at 25° C. for 20 min.

| IC50 [1] | IC50 [3] | Compound | tumor size as % of that in the vehicle control group ([2]; 25 mg/kg daily IV, days 1-5 and 8-12, 22nd day post treatment) | tumor size as % of that in the vehicle control group ([2]; 50 mg/kg daily IV, days 1-5, 22nd day post treatment) | tumor growth suppression (in words) ([2]; dosages of 25 and 50 mg/kg IV) | tumor size as % of that in the vehicle control group ([2]; 5 mg/kg daily IV, days 1-5 and 8-12, 22nd day post treatment) | tumor size as % of that in the vehicle control group ([2]; 15 mg/kg daily IV, days 1-5 and 8-12, 22nd day post treatment) | tumor growth suppression (in words) ([2]; dosage of 15 mg/kg IV) | tumor size as % of that in the vehicle control animals ([2]; 50 mg/kg daily IV, days 1-5 and 8-12, 22nd day post treatment) |
| --- | --- | --- | --- | --- | --- | --- | --- | --- | --- |
| < 100 nM | < 1000 nM and 51 to 450 nM | COc1cc2ncnc(NCCc3ccc(NC(=O)Nc4ccccc4CN(C)C)cc3)c2cc1OC [Compound 3, 1-{4-[2-(6,7-Dimethoxy-quinazolin-4-ylamino)-ethyl]-phenyl}-3-(2-dimethylaminomethyl-phenyl)-urea] | 35% | 36% | suppressed tumor growth significantly and better than VX-680 |  |  |  |  |
| < 100 nM | 51 to 450 nM and < 1000 nM | O=C(Nc1ccccc1)Nc1ccc(CCNc2ncnc3cc(F)ccc23)cc1 [Compound 253] |  |  |  |  |  |  |  |
|  |  | Cc1cc(Nc2cc(N3CCN(C)CC3)nc(Sc3ccc(NC(=O)C4CC4)cc3)n2)n[nH]1 [VX-680, reference compound] |  |  |  |  |  |  | 50% |

| Compound | IC50 [1] | IC50 [3] | tumor size as % of that in the vehicle control group ([2]; 25 mg/kg daily IV, days 1-5 and 8-12, 22nd day post treatment) | tumor size as % of that in the vehicle control group ([2]; 50 mg/kg daily IV, days 1-5, 22nd day post treatment) | tumor growth suppression (in words) ([2]; dosages of 25 and 50 mg/kg IV) | tumor size as % of that in the vehicle control group ([2]; 5 mg/kg daily IV, days 1-5 and 8-12, 22nd day post treatment) | tumor size as % of that in the vehicle control group ([2]; 15 mg/kg daily IV, days 1-5 and 8-12, 22nd day post treatment) | tumor growth suppression (in words) ([2]; dosage of 15 mg/kg IV) | tumor size as % of that in the vehicle control animals ([2]; 50 mg/kg daily IV, days 1-5 and 8-12, 22nd day post treatment) |
| --- | --- | --- | --- | --- | --- | --- | --- | --- | --- |
| CN(C)CCCOc1ccc2c(NCCc3ccc(NC(=O)Nc4ccccc4)cc3)ncnc2c1 [Compound 4, 1-(4-{2-[7-(3-Dimethylamino-propoxy)-quinazolin-4-ylamino]-ethyl}-phenyl)-3-phenyl-urea] | < 100 nM | < 1000 nM and 51 to 450 nM |  |  |  | 67% | 37% | suppressed tumor growth significantly and better than VX-680 |  |
